{"source": "patent US11957671B2", "about": "“Benzodioxane modulators of leukotriene A4 hydrolase (LTA4H) for prevention and treatment of aging-associated diseases” (Alkahest, Inc., priority 2021, dated 2024)", "key": {"[1]": {"tested_on": "aged wild type (WT; C57BL/6) mice", "assay": "Contextual Fear Conditioning (CFC)", "type": "in vivo, mouse", "settings": "10 mg/kg PO daily, after 8 days of treatment", "protocol": "Mice were brought into the testing room immediately before their trial to avoid exposure to sounds and scents from testing. Day 1: For training, mice were placed in the chambers, bright house light and fan on, for 2 minutes. Then an auditory cue (2000 Hz, 70 dB, conditioned stimulus (CS)) was presented for 30 seconds. A 2 second foot shock (0.6 mA; unconditioned stimulus (US)) was administered for the final 2 seconds of the CS. This procedure was repeated once, each after a 2-minute interval, and the mouse was removed from the chamber 30 seconds after the second shock. The pans, chamber walls and grid floors were cleaned with 70% ethanol between trials. Day 2: […] after the training, the mouse was returned to the same chamber in which the training occurred (memory for context), and freezing behavior was recorded for 3 min. The mouse was returned to its home cage. The pans, chamber walls, and grid floors were cleaned with 70% ethanol between trials. Day 3: 24 hours after context testing, the mouse was returned to the same chamber and freezing was recorded in a novel environment (altered context) and in response to the cue (memory for cue). […] The mouse was placed in the novel environment and freezing was recorded for 2 minutes. The auditory cue (2000 Hz, 70 dB, CS) was then presented for 30 seconds, and freezing was again recorded for 2 minutes. […]"}, "[2]": {"tested_on": "aged C57BL6 mice", "assay": "Rotarod", "type": "in vivo, mouse", "settings": "19 days of dosing", "protocol": "Mice were trained by allowing to run on the rotarod at 5 RPM speed setting on the i-Therm CTR-44 Rotarod for 5 minutes, if the mouse fell off it was put back on until it was able to complete minutes without falling off. After 15 minutes, if the mouse is unable to stay on the rotarod for a continuous 5 minutes, the mouse is excluded from analysis. Mice were then given 3 trials where the speed was increased from 5 RPM to 40 RPM over 90 seconds; the time at which the mouse fell off was recorded for each trial. Inter-trial interval is at least 15 minutes to allow the mice adequate rest. The rotarod is cleaned with 70% ethanol between trials."}, "[3]": {"tested_on": "hippocampal neurons of aged C57BL/6 mice", "assay": "Single cell RNA sequencing of NeuN+ hippocampal nuclei (CA1, DG)", "type": "in vivo, mouse", "protocol": "Aged C57BL/6 mice (21 months of age) were treated for 1 month bid po with vehicle, 1 mg/kg Compound 1, or 2.5 mg/kg SC57461A (n=3 mice per treatment group). NucSeq For Mouse Brain Tissue protocol from 10× Genomics was used to isolate mouse hippocampus nuclei. Approximately 65 mg of brain tissue were used per treatment. Nonidet P40 was used to lyse cell walls and isolated nuclei were stained with Draq5 and NeuN antibodies for FACS sorting. Approximately 5,000 nuclei were collected for each sample. Eight samples were collected for each treatment for a total of 40,000 nuclei per treatment. These samples were prepped for sequencing using the 10× Genomics Chromium Next GEM kit.\nGO terms are generated using the g:Profiler Web server (https://bitt.cs.ut.ee/gprofiler) to analyze differential regulated gene lists. Reported are the top 20 gene ontology (GO terms) terms from the biological process category, sorted by significance as determined by P-value. This list was filtered to report significant GO terms that include less than 1000 genes."}, "[4]": {"tested_on": "aged C57BL6 mice", "assay": "Inverted Wire Hang", "type": "in vivo, mouse", "settings": "12 days of dosing", "protocol": "Mice were brought into the experimental room for at least 20 minutes of acclimation to the experimental room conditions (bright lighting) prior to testing. Each mouse was placed in the center of the grid. Then swiftly in one continuous motion the grid was inverted 180 degrees to suspend the mouse upside down with their nose being the last part of the mouse to be suspended. The timer was started once the mouse was completely suspended and time to fall was recorded. Mice were tested 3 times with no rest period between each test with a maximum suspension time of 120 seconds. The maximum and average time to fall were scored for each animal."}, "[5]": {"tested_on": "Notch3R169C mice", "assay": "CADASIL transgenic mouse model Notch3R169C, 4 months dosing (Example 24)", "type": "in vivo", "settings": "1 mg/kg PO BID 4 months", "protocol": "Notch3^R169C mice (5-month-old) were treated PO BID with either vehicle or Compound 1 (1 mg/kg) for 4 months and littermate WT controls were treated with vehicle for 4 months. Prior to sacrifice, syringes were prepped with 7.5 μL of 1000 U/mL heparin. To increase LTB4 plasma levels, whole blood was stimulated with calcimycin prior to generation of plasma. First, 100 μL of 10 mM calcimycin (Sigma #C7522) in DMSO was diluted into 10 mL of PBS and sonicated for 10 minutes at 37° C. In a 96 well polystyrene plate (Corning 354657), 160 μL of mouse whole blood was collected for each animal and incubated for 15 minutes in a 37° C./5% CO2 (Panasonic MCO-230AICUV-PA). Next, 40 μL of the 100 μM calcimycin working solution was added to each well and incubated again for 30 minutes at 37° C./5% CO2. After incubation, the plates were centrifuged for 10 minutes at 4° C. at 1500 rpm. Plasma was diluted 1:10 and analyzed for LTB4 using LTB4 ELISA Kit (Enzo Life Sciences, ADI-901-068) in duplicate following the included kit protocol. The final readings were collected on a BMG LABTECH CLARIOstar plate reader at 405 nm. Brain tissue was dissected for cortex. One third of the cortex was homogenized in RIPA buffer (EMD Millipore 20-188) using an Omni BeadRuptor 24. Lysates were centrifuged for 10 mins at 10,000 g at 4° C. to collect the supernatant. Protein concentration was determined by BCA (Thermo Fisher 23225) and then diluted in PBS to approximately 10 mg/ml. Samples were sent to Eve Technologies for analysis."}, "[6]": {"tested_on": "LTA4H hydrolysis activity in mouse whole blood", "assay": "Ex Vivo LTB4 Assay, mouse blood", "type": "cell-based", "settings": "mouse whole blood incubated with compound", "protocol": "Whole blood was incubated with Compound 1 or vehicle and then a calcium ionophore (Calcimycin, A23187), or 10% DMSO. LTB4 levels in plasma were measured using ELISA.\nFIGS. 36-37 report the results of ex vivo target engagement assays with Compound 1 in human and mouse plasma. Whole blood from human or mouse was incubated with vehicle or Compound 1, following by a calcium ionophore stimulation. Plasma was generated and LTB4 levels were measured using ELISA. LTB4 is the product of LTA4H hydrolysis so this assay reports on LTA4H enzymatic activity."}, "[7]": {"settings": "1 month bid po, 1 mg/kg Compound 1 or 2.5 mg/kg SC57461A"}}, "data": [{"smiles": "O=C(O)C1CCN(Cc2ccc([C@H]3COc4ccccc4O3)cc2)CC1", "note": "[Example 1, 1-{4-[(2S)-2,3-dihydro-1,4-benzodioxin-2-yl]benzyl}piperidine-4-carboxylic acid]", "values": [{"measurement": "percent time freezing during testing phase of CFC", "setting": "[1]", "value": "increased freezing time"}, {"measurement": "average time before falling on the rotarod", "setting": "[2]", "value": "no change in average time before falling"}, {"measurement": "CA1 neuronal gene changes", "setting": "[3]; [7]", "value": "many significant gene changes to neurons in the CA1 region of the hippocampus"}, {"measurement": "DG neuronal gene changes", "setting": "[3]; [7]", "value": "many significant gene changes to neurons in the DG region of the hippocampus"}, {"measurement": "Dcc gene expression in the dentate gyrus", "setting": "[3]; [7]", "value": "upregulation of Dcc gene expression"}, {"measurement": "Spock3 gene expression in the dentate gyrus", "setting": "[3]; [7]", "value": "upregulation of Spock3 gene expression"}, {"measurement": "Biological Process GO terms, CA1 hippocampal neurons", "setting": "[3]; long-term treatment", "value": "changes to “synaptic signaling” and “synaptic organization”"}, {"measurement": "Biological Process GO terms, DG hippocampal neurons", "setting": "[3]; long-term treatment", "value": "changes to synapses"}, {"measurement": "maximum hang time in the wire hang test", "setting": "[4]", "value": "no change in maximum hang time"}, {"measurement": "IL-2 levels in plasma", "setting": "[5]", "value": "significantly reduced"}, {"measurement": "IL-7 levels in brain cortex lysate", "setting": "[5]", "value": "significantly reduced"}, {"measurement": "LTB4 levels in stimulated plasma", "setting": "[5]", "value": "significantly reduced"}, {"measurement": "LTB4 levels in unstimulated plasma", "setting": "[5]", "value": "no change in LTB4 levels detected between groups"}, {"measurement": "LTB4 plasma levels after calcium ionophore stimulation", "setting": "[6]", "value": "reduces LTB4 plasma levels to unstimulated levels"}]}]}
